Measurements from publication PMC8443589, “Modelling human liver fibrosis in the context of non-alcoholic steatohepatitis using a microphysiological system” (Communications Biology, 2021).
Where “and” joins values, the source holds several entries; their conditions need not be identical. Identical values can stand only once.

Key:
[1] = tested on: liver MPS NASH model + TGFβ (PHH, KC and HSC co-cultures, high fat); experiment: Fibrosis-associated soluble biomarkers (TIMP-1, pro-collagen 1) in liver MPS NASH model with TGFβ dosed with OCA or ELF (Fig 6b); format: cell-based, human; details: NASH + TGF, individual replicates, listed as OCA
Excerpt: (§1) The systems biology approach identified TGFβ to be a key driver in creating a more advanced NASH phenotype in the MPS model, with enhanced fibrotic markers and reduced liver function. […] Therefore, we explored how effective pharmacological intervention would be for NASH microtissues with high NPC numbers supplemented with TGFβ and exposed them to varying concentrations of OCA and ELF QD as previously described (Supp. Fig. 6a). […] OCA had the greatest effect on IL-1Rα whereas ELF had the greatest effect on MCP-1 reflecting the fact that while both candidate drugs have anti-inflammatory properties, but their mechanisms of action are different. […] Finally, we used our quantitative fibrosis imaging assay to assess the effect of each candidate drug on collagen-1 deposition and α-SMA expression (Fig. 6c). […] Both candidate drugs caused a significant reduction in collagen-1 deposition and α-SMA expression, with the highest concentrations of OCA and ELF causing an 80% reduction in α-SMA expression and a 75% reduction in collagen-1 deposition (Fig. 6c).
(§2) Fig. 6 Using enhanced liver MPS NASH model with TGFβ, Obeticholic acid and Elafibranor modulate disease phenotype to a greater extent than in standard NASH model. PHH, KC and HSC co-cultures were cultured in the MPS platform under high-fat conditions and dosed with varying concentrations of Obeticholic acid (OCA) and Elafibranor (ELF) QD or vehicle control for 10 days, following an initial 4-day pre-culture phase. Throughout the compound dosing period TGFβ was also dosed onto all microtissues (NASH only vehicle control samples were also included in the study for comparison, which were not treated with TGFβ or dosed with any compound). a The secreted cytokine profile from treated liver microtissues was compared to determine the effects of each compound on the inflammatory profile of the liver with samples analysed at day 8 and 14 of the culture. Data were normalised by Z-transformation to allow comparison of all analytes (white = undetected). b The expression of fibrosis-associated biomarkers was analysed on day 14 media samples and compared to NASH + TGFβ control samples. c Liver microtissues were stained for collagen-type I, α-SMA, nuclei (DAPI), phalloidin (green) and imaged by confocal microscopy. Representative images are shown and scale bars 200 µm. Staining of microtissues was quantified by measuring total fluorescence intensity throughout individual microtissues, each data point represents an average of all microtissues per MPS culture (min 8, max 20). All datapoints shown with error bars highlighting means ± SD, all data from a minimum of three independent cultures: all comparisons were made to NASH + TGFβ control samples.
Soluble biomarkers in cell culture medium from the MPS were analysed by enzyme-linked immunosorbent assay (ELISA); IL-6 was measured by Human IL-6 DuoSet ELISA (R&D Systems); MCP-1 was measured by Human CCL2/MCP-1 DuoSet ELISA (R&D Systems); pro-collagen 1 was measured by Human Pro-Collagen I α1 DuoSet (R&D Systems); TIMP-1 was measured by Human TIMP-1 Quantikine ELISA Kit (R&D Systems); Fibronectin was measured by Human Fibronectin DuoSet ELISA (R&D Systems); YKL-40 was measured by Human Chitinase 3-like 1 Quantikine ELISA Kit (R&D Systems); Albumin secretion was measured by Human Albumin AssayMax™ ELISA kit (Assay Pro, St. Charles, MO). For all assays, the manufacturer’s protocol was followed.
(§3) Liver microtissues were cultured for 4 days in HEP-FAT medium, before dosing with obeticholic acid or elafibranor. Both compounds were dissolved in DMSO, diluted in cell culture medium (final DMSO concentration ≤1%) and added to microtissues during a full medium change every two days and in addition on the intervening days compounds were spiked into the media to increase drug concentration back to desired concentrations. Cultures were maintained in the presence of the compound, for a total of 10 days in the presence or absence of TGFβ.

[2] = tested on: liver MPS NASH model + TGFβ (PHH, KC and HSC co-cultures, high fat); experiment: Secreted cytokine profile of enhanced liver MPS NASH model with TGFβ dosed with OCA or ELF (Fig 6a); format: cell-based, human; details: for IL-1RA production, fold change compared to control / IL-4 production, fold change compared to control / IL-6 production, fold change compared to control / IL-8 production, fold change compared to control / IP-10 production, fold change compared to control / MCP-1 production, fold change compared to control / MIP-1a production, fold change compared to control / MIP-1b production, fold change compared to control / VEGF production, fold change compared to control: vs NASH + TGFβ control
Excerpt: as §1, §2
Cytokine profiles in cell culture medium samples were also analysed by Luminex array for determination of 38 analytes in total, consisting of cytokines, chemokines, and growth factors using the MILLIPLEX MAP Human Cytokine/Chemokine Magnetic Bead Panel - Premixed 38 Plex (Merck Millipore, USA).
as §3

human NASH patients = details: 18-month interim analysis; cited from earlier work

For CC[C@H]1[C@@H](O)[C@@H]2[C@H](CC[C@]3(C)[C@@H]([C@H](C)CCC(=O)O)CC[C@@H]23)[C@@]2(C)CC[C@@H](O)C[C@@H]12 [Obeticholic acid], the “Pro-collagen 1” value ([1]; 0.25 uM) was 444.17 pg/day and 318.9 pg/day and 467.42 pg/day, the TIMP-1 ([1]; 0.25 uM) was 197.88 pg/day and 287.39 pg/day and 303.89 pg/day and the “Pro-collagen 1” value ([1]; 5 uM) was 576.99 pg/day and 525.8 pg/day and 497.39 pg/day. For the same compound, the TIMP-1 ([1]; 5 uM) was 311.28 pg/day and 328.19 pg/day and 368.24 pg/day, the “Pro-collagen 1” value ([1]; 12.5 uM) was 448.27 pg/day and 351.02 pg/day and 505.76 pg/day and the TIMP-1 ([1]; 12.5 uM) was 365.14 pg/day and 327.97 pg/day and 326.64 pg/day. The “IL-1RA production, fold change compared to control” value (“IL-1RA production, fold change” below) ([2]; 0.25 µM, Day 8) was 1.08 fold change, the “IL-4 production, fold change compared to control” value (shortened to “IL-4 production, fold change”) ([2]; 0.25 µM, Day 8) was 1.009 fold change and the “IL-6 production, fold change compared to control” value (shortened to “IL-6 production, fold change”) ([2]; 0.25 µM, Day 8) was 1.014 fold change. For the same compound, the “IL-8 production, fold change compared to control” value (shortened to “IL-8 production, fold change”) ([2]; 0.25 µM, Day 8) was 1.005 fold change, the “IP-10 production, fold change compared to control” value (shortened to “IP-10 production, fold change”) ([2]; 0.25 µM, Day 8) was 1.251 fold change and the “MCP-1 production, fold change compared to control” value (“MCP-1 production, fold change” below) ([2]; 0.25 µM, Day 8) was 1.076 fold change. For the same compound, the “MIP-1a production, fold change compared to control” value (from here on “MIP-1a production, fold change”) ([2]; 0.25 µM, Day 8) was 0.8432 fold change, the “MIP-1b production, fold change compared to control” value (“MIP-1b production, fold change” below) ([2]; 0.25 µM, Day 8) was 0.7821 fold change and the “VEGF production, fold change compared to control” value (“VEGF production, fold change” below) ([2]; 0.25 µM, Day 8) was 1.067 fold change. For the same compound, the “IL-1RA production, fold change” value ([2]; 0.25 µM, Day 14) was 0.5028 fold change, the “IL-4 production, fold change” value ([2]; 0.25 µM, Day 14) was 0.8171 fold change and the “IL-6 production, fold change” value ([2]; 0.25 µM, Day 14) was 0.4566 fold change. For the same compound, the “IL-8 production, fold change” value ([2]; 0.25 µM, Day 14) was 0.6873 fold change, the “IP-10 production, fold change” value ([2]; 0.25 µM, Day 14) was 1.095 fold change and the “MCP-1 production, fold change” value ([2]; 0.25 µM, Day 14) was 0.7086 fold change. The “MIP-1a production, fold change” value ([2]; 0.25 µM, Day 14) was 0.8386 fold change, the “VEGF production, fold change” value ([2]; 0.25 µM, Day 14) was 1.001 fold change and the “IL-1RA production, fold change” value ([2]; 5 µM, Day 8) was 0.6972 fold change. The “IL-4 production, fold change” value ([2]; 5 µM, Day 8) was 1.1399 fold change, the “IL-6 production, fold change” value ([2]; 5 µM, Day 8) was 1.2962 fold change and the “IL-8 production, fold change” value ([2]; 5 µM, Day 8) was 1.283 fold change. The “IP-10 production, fold change” value ([2]; 5 µM, Day 8) was 1.04 fold change, the “MCP-1 production, fold change” value ([2]; 5 µM, Day 8) was 0.9329 fold change and the “MIP-1a production, fold change” value ([2]; 5 µM, Day 8) was 0.9021 fold change. For the same compound, the “MIP-1b production, fold change” value ([2]; 5 µM, Day 8) was 0.7383 fold change, the “VEGF production, fold change” value ([2]; 5 µM, Day 8) was 1.4206 fold change and the “IL-1RA production, fold change” value ([2]; 5 µM, Day 14) was 0.2072 fold change. For the same compound, the “IL-4 production, fold change” value ([2]; 5 µM, Day 14) was 1.048 fold change, the “IL-6 production, fold change” value ([2]; 5 µM, Day 14) was 0.937 fold change and the “IL-8 production, fold change” value ([2]; 5 µM, Day 14) was 0.8309 fold change. The “IP-10 production, fold change” value ([2]; 5 µM, Day 14) was 1.661 fold change, the “MCP-1 production, fold change” value ([2]; 5 µM, Day 14) was 0.6601 fold change and the “MIP-1a production, fold change” value ([2]; 5 µM, Day 14) was 1.231 fold change. For the same compound, the “MIP-1b production, fold change” value ([2]; 5 µM, Day 14) was 1.514 fold change, the “VEGF production, fold change” value ([2]; 5 µM, Day 14) was 2.374 fold change and the “IL-1RA production, fold change” value ([2]; 12.5 µM, Day 8) was 0.3318 fold change. The “IL-4 production, fold change” value ([2]; 12.5 µM, Day 8) was 0.7385 fold change, the “IL-6 production, fold change” value ([2]; 12.5 µM, Day 8) was 0.7346 fold change and the “IL-8 production, fold change” value ([2]; 12.5 µM, Day 8) was 0.6207 fold change. The “IP-10 production, fold change” value ([2]; 12.5 µM, Day 8) was 1.145 fold change, the “MCP-1 production, fold change” value ([2]; 12.5 µM, Day 8) was 0.4485 fold change and the “MIP-1a production, fold change” value ([2]; 12.5 µM, Day 8) was 1.263 fold change. For the same compound, the “MIP-1b production, fold change” value ([2]; 12.5 µM, Day 8) was 1.247 fold change, the “VEGF production, fold change” value ([2]; 12.5 µM, Day 8) was 1.208 fold change and the “IL-1RA production, fold change” value ([2]; 12.5 µM, Day 14) was 0.02359 fold change. The “IL-4 production, fold change” value ([2]; 12.5 µM, Day 14) was 0.2784 fold change, the “IL-6 production, fold change” value ([2]; 12.5 µM, Day 14) was 0.3766 fold change and the “IL-8 production, fold change” value ([2]; 12.5 µM, Day 14) was 0.4421 fold change. For the same compound, the “IP-10 production, fold change” value ([2]; 12.5 µM, Day 14) was 0.932 fold change, the “MCP-1 production, fold change” value ([2]; 12.5 µM, Day 14) was 0.2604 fold change and the “MIP-1a production, fold change” value ([2]; 12.5 µM, Day 14) was 1.011 fold change. The “MIP-1b production, fold change” value ([2]; 12.5 µM, Day 14) was 1.454 fold change, the “VEGF production, fold change” value ([2]; 12.5 µM, Day 14) was 0.8682 fold change and the “cytokine on which the drug had the greatest effect” value ([2]; NASH microtissues, high NPC, + TGFβ) was “IL-1Rα”. The “NASH resolution in phase 3 trial” value (human NASH patients) was “did not reach statistical significance” and the “liver fibrosis in phase 3 trial” value (human NASH patients) was “improved liver fibrosis”.
